This note sets out measurements from patent publication US12667103B2, “Methods and compositions comprising herbicidally active compounds and thiocyanate compounds for controlling weed growth” (MUSTGROW BIOLOGICS CORP., priority 2020, dated 2026).

The test system of this assay is weed plants. Description: Field trial of weed control: individual weed plants counted on test plots after herbicide treatment. Format: in vivo. The note with it: for Incidence of weeds (average count of weed plants per test plot): MustGrow SCN 24.3 kg/acre. The protocol:
A total of 8 herbicide treatments were run in a field trial as follows:
RT540®, Bayer CropScience contains 540 g/L of glyphosate as the active ingredient. MustGrow SCN consists of pure commercially purchased thiocyanate in powder form. RT540 and MustGrow SCN were diluted with 10 parts of water and applied using a backpack sprayer to each of the test plots located in central Saskatchewan at the rate indicated in Table 2. Each treatment consisted of triplicate experimental plots (4×20 ft). Weed plant growth was monitored by counting individual weed plants present on each of the test plots over a period of 5 weeks from application.

On to `O=C(O)CNCP(=O)(O)O` [glyphosate, N-(phosphomethyl)glycine, reference compound], for which, under “under the conditions of this trial, RT540 0.1-1 L/acre”, the “Effectiveness in limiting the incidence of weeds, in words” value is reported as “marginally effective”.
As to thiocyanate [MustGrow SCN], the “Incidence of weeds (average count of weed plants per test plot)” value came out at 8 (week 1); 15 (week 2); 75 (week 3); 155 (week 4); 174 (week 5).
